Where two headings read alike, the source gives them in different places.
Assays:
V600E full-length B-Raf = molecular target: T1, V600E full-length B-Raf (Homo sapiens, UniProt P15056, V600E); experiment: B-Raf IC50 assay (Example A); assay type: biochemical
T1 construct: 1 μM FSBA-MEK and 20 nM V600E full-length B-Raf; made in house; host or cells: Sf9 insect cells (baculovirus)
Method in brief: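 Sf9-expressed full-length V600E B-Raf (20 nM) phosphorylated 1 µM FSBA-modified wild-type MEK with 4 µM ATP plus [γ-33P]ATP in 25 mM Pipes pH 7.2, 100 mM KCl, 10 mM MgCl2. Enzyme and substrate were preincubated 15 min, and the reaction ran 60 min at 22 °C. It was TCA-quenched and filter-captured, and incorporated radioactivity was scintillation-counted.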

[1] = test system: basal ERK1/2 phosphorylation in Malme-3M cells; experiment: Cellular ERK 1/2 phosphorylation assay (Example A1); assay type: cell-based; details: Homo sapiens, 1 hour incubation, pERK normalized to total ERK, read-out: P-ERK Malme3-M IC50
Method in brief: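 Malme-3M cells (24,000/well, RPMI-1640 with 10% FBS) were treated with compounds for 1 h at 37 °C, 1% DMSO final. Fixed, methanol-permeabilized cells were immunostained for pERK and total ERK and read by infrared fluorescence. pERK signal was normalized to total ERK.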

[2] = B-Raf V600E assay of Example A, read-out: IC50
[3] = [γ-33P]ATP incorporation into FSBA-MEK, 4 μM ATP, read-out: BRAF V600E IC50

T1 sequence (P15056 whole entry V600E): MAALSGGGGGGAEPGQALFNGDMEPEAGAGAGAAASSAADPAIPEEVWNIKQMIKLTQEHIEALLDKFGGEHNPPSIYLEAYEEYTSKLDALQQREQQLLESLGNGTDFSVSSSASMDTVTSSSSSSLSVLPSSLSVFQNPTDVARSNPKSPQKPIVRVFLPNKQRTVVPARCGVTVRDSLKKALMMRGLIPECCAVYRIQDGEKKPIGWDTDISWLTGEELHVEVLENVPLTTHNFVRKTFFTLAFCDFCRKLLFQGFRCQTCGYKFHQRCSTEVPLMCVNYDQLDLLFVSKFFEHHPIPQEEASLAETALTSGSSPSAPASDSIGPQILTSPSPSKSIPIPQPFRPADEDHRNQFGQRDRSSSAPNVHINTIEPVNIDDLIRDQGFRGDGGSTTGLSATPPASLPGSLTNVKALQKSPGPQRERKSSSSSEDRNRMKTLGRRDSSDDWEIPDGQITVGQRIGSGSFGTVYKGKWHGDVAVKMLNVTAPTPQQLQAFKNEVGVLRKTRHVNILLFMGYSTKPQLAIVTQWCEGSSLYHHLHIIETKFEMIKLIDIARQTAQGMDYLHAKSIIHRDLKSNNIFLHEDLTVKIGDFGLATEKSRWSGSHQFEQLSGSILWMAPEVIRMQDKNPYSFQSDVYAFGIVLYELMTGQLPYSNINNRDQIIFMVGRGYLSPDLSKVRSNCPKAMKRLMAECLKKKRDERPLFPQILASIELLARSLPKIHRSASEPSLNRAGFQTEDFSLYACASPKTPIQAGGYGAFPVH

| Compound | IC50 (V600E full-length B-Raf; [2]) [nM] | IC50 (V600E full-length B-Raf; [3]) [nM] | IC50 [1] [nM] | IC50 (V600E full-length B-Raf; BRAF V600E IC50 (μM), [γ-33P]ATP incorporation into FSBA-MEK, 4 μM ATP) [nM] |
| --- | --- | --- | --- | --- |
| CCCS(=O)(=O)Nc1cc(Cl)cc(NC(=O)c2cccc3c(N)ncnc23)c1F [Example 14, 4-Amino-quinazoline-8-carboxylic acid [5-chloro-2-fluoro-3-(propane-1-sulfonylamino)-phenyl]-amide] | < 100 | 27.9 | 381 |  |
| CCCS(=O)(=O)Nc1ccc(Cl)c(NC(=O)c2cccc3c(N)ncnc23)c1F [Example 17, 4-Amino-quinazoline-8-carboxylic acid [6-chloro-2-fluoro-3-(propane-1-sulfonylamino)-phenyl]-amide] | < 100 |  | 8.7 | 0.58 |
| CCCS(=O)(=O)Nc1cccc(NC(=O)c2cccc3c(N)ncnc23)c1C#N [Example 30, 4-Amino-quinazoline-8-carboxylic acid [2-cyano-3-(propane-1-sulfonylamino)-phenyl]-amide] | < 100 | 0.08 | 7.1 |  |
| CCCS(=O)(=O)Nc1ccc(F)c(NC(=O)c2cccc3c(N)ncnc23)c1OC [Example 4, 4-Amino-quinazoline-8-carboxylic acid [6-fluoro-2-methoxy-3-(propane-1-sulfonylamino)-phenyl]-amide] | < 1000 | 191 | 433 |  |
| CCCS(=O)(=O)Nc1cc(F)cc(NC(=O)c2cccc3c(N)ncnc23)c1F [Example 11, 4-Amino-quinazoline-8-carboxylic acid [2,5-difluoro-3-(propane-1-sulfonylamino)-phenyl]-amide] | < 100 | 4.13 | 45 |  |
| CCCS(=O)(=O)Nc1ccc(F)c(NC(=O)c2cccc3cncnc23)c1F [Example 54, Quinazoline-8-carboxylic acid [2,6-difluoro-3-(propane-1-sulfonylamino)-phenyl]amide] | < 1000 | 119 | 526 |  |
| Nc1ncnc2c(C(=O)Nc3c(F)c(F)cc(NS(=O)(=O)CCCF)c3F)cccc12 [Example 26, 4-Amino-quinazoline-8-carboxylic acid [2,3,6-trifluoro-5-(3-fluoro-propane-1-sulfonylamino)-phenyl]-amide] | < 100 | 0.31 | 10.8 |  |

More lines, main results first:

| IC50 (V600E full-length B-Raf; [2]) [nM] | IC50 (V600E full-length B-Raf; [3]) [nM] | Compound | IC50 [1] [nM] | IC50 (V600E full-length B-Raf; BRAF V600E IC50 (μM), [γ-33P]ATP incorporation into FSBA-MEK, 4 μM ATP) [nM] |
| --- | --- | --- | --- | --- |
| < 100 | 1.49 | O=C(Nc1c(Cl)ccc(NS(=O)(=O)CCCF)c1F)c1cccc2cncnc12 [Example 59, Quinazoline-8-carboxylic acid [6-chloro-2-fluoro-3-(3-fluoro-propane-1-sulfonylamino)-phenyl]-amide] | 83.7 |  |
| < 100 | 32.2 | O=C(Nc1c(F)ccc(NS(=O)(=O)CCCF)c1F)c1cccc2cncnc12 [Example 55, Quinazoline-8-carboxylic acid [2,6-difluoro-3-(3-fluoro-propane-1-sulfonylamino)-phenyl]-amide] | 92.8 |  |
| < 100 | 0.75 | Nc1ncnc2c(C(=O)Nc3c(F)ccc(NS(=O)(=O)CCCF)c3F)ccnc12 [Example 66, 4-Amino-pyrido[3,2-d]pyrimidine-8-carboxylic acid [2,6-difluoro-3-(3-fluoro-propane-1-sulfonylamino)-phenyl]-amide] | 3.04 |  |

— US20130018033A1, “RAF INHIBITOR COMPOUNDS AND METHODS OF USE THEREOF” (ARRAY BIOPHARMA INC., priority 2009, published 2013)
